Series [1] deals with p65 NF-κB nuclear translocation in HaCaT cells. In words: TNFα-induced p65 NF-κB nuclear translocation, immunofluorescence. In kind it is cell-based. The conditions noted are these: 10 μM pretreatment 24 h, then 10 ng/mL TNFα 1 h. On the procedure:
HaCaT cells were cultured with Dulbecco’s modified Eagle’s medium High Glucose (Lonza, Milan, Italy) supplemented with 10% FBS, 100 U/mL penicillin, 100 μg/mL streptomycin and 2 mM L-glutamine as previously described. Cells were maintained in a humidified incubator at 37 °C with 5% CO2 and incubated until the monolayer was 80% confluent. Medium was changed every 2 days.
HaCaT cells were pretreated with or without 10 μM of both SCA and SCB for 24 h. Stock solutions of the two compounds were prepared in DMSO immediately before use and diluted to the final concentration in the culture medium. In some sets of experiments, betamethasone-17-valerate (10 µg/mL) served as a positive control; dimethyl sulfoxide (DMSO) served as a solvent control. After the pretreatments, cells were stimulated with 10 ng/mL TNFα for 1 h to induce the NFκB signaling pathway. Then, media were replaced with fresh culture medium. Cells and supernatants were collected at different time points for each set of experiments as described below.
Briefly, HaCaT cells were seeded on coverslips at a density of 1 × 10^5 cell/mL and incubated with DMEM high glucose supplemented with FBS 10%. Then, HaCaT cells were treated as indicated above. At the end of the proinflammatory stimulus with TNFα, cells were fixed in 4% paraformaldehyde in PBS for 30 min at 4 °C as previously described. HaCaT cells were permeabilized for 5 min at RT with PBS containing 0.2% Triton X-100. After the blocking with 1% BSA in PBS at RT for 1 h, HaCaT cells were incubated with p65 NF-κB primary antibody (1:100, sc-372; Santa Cruz Biotechnology, Inc., Dallas, Texas, USA) in PBS containing 0.5% BSA at 4 °C overnight. After washing, coverslips were incubated with appropriate secondary antibody for 1 h at RT. Nuclei were stained with 1 μg/mL DAPI (Sigma- Aldrich, Italy) for 1 min. […] Fluorescence was examined using an Epifluorescence microscope (Nikon Eclipse E800; Nikon Corporation, Surrey, UK) equipped with a plan apochromat 100 × 0.5 − 1.3 oil immersion objective and a mercury lamp source.

Series [2] concerns Salmonella typhimurium TA98. As to the kind of experiment: Ames test (plate incorporation), strain TA98. The class given is cell-based. On the procedure:
Mutagenicity assay was performed following the plate incorporation method with the histidine-requiring Salmonella typhimurium mutant TA98 and TA100 strains. All strains (100 µl per plate of fresh overnight cultures) were checked with and without the addition of 0.5 mL of a 5% S9 exogenous metabolic activator (S9 mix). The lyophilized post-mitochondrial supernatant S9 mix (Aroclor 1254-induced, Sprague–Dawley male rat liver in 0.154 M KCl solution, Molecular Toxicology, Inc., Boone, NC, USA), commonly used for the activation of pro-mutagens to mutagenic metabolites, was stored at− 80 °C before use. The concentration tested for all the samples were 1, 5, 10, 50, 100 µL/plate of a stock solution 100 mg/mL.
A fully-grown culture of the appropriate tester strain (0.1 mL) was added to 2 mL Molten Top Agar (0.6% agar, 0.6% NaCl, 0.5 mM L-histidine/biotin solution) at 46 °C, together with 0.1 mL of each sample solution at different concentrations, and 0.5 mL S9 mix for assays with metabolic activation or 0.5 mL of phosphate buffer pH 7.4 to test without metabolic activation. The ingredients were thoroughly mixed and poured onto minimal glucose agar plates (1.5% agar in 2% Vogel–Bonner medium E with 5% glucose solution).
DMSO was used as a negative control (100 µl/plate). Positive controls were prepared as follows: 2-aminoanthracene (2 µg/plate) and 2-nitrofluorene (2 µg/plate) for TA98 with and without metabolic activator (S9 mix) respectively; 2-aminoanthracene (2 µg/plate) and sodium azide (2 µg/plate) for TA100, with and without metabolic activator (S9 mix) respectively. The plates were incubated at 37 °C for 72 h and then the his^+ revertants were checked and counted using a Colony Counter 560 Suntex (Antibioticos, Italy). A sample was considered mutagenic when the observed number of colonies was at least twofold over the spontaneous level of revertants. All determinations were made in triplicate. Relative standard deviations were computed using the statistical software […] 6.0 (StatSoft Italia srl).
On the technique in general: In the Ames test, an excess of revertant colonies over the control signals mutagenicity.

A further series addresses T1, cyclooxygenase (COX) (Ovis aries, UniProt P05979).
T1 construct: purchased Cayman 700200
T1 sequence (P05979 25-600): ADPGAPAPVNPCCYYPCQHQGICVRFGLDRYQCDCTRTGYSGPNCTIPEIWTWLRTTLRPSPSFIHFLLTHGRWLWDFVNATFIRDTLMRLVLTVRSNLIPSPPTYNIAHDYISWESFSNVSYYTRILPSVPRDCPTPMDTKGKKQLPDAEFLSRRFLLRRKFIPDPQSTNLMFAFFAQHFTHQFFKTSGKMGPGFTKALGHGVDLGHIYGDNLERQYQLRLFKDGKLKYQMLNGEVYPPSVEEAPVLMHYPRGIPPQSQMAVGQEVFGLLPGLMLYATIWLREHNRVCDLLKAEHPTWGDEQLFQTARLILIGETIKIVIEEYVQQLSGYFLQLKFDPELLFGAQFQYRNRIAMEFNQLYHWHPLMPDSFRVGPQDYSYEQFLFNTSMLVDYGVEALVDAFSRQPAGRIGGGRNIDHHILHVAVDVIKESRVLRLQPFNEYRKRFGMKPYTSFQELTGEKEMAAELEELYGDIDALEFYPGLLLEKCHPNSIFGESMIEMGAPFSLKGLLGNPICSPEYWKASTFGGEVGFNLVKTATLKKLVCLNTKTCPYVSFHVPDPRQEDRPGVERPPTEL
In words: Cyclooxygenase inhibitory assay (fluorescence COX activity kit). The class given is biochemical. As to conditions: purified COX preparation, 0.1, 1, 10 and 100 µM, 5 min at 25 °C.

Setting [3] is: TA98, + S9, 1 µL/plate of a stock solution 100 mg/mL.
[4] abbreviates: TA98, + S9, 5 µL/plate of a stock solution 100 mg/mL.
[5] abbreviates: TA98, + S9, 10 µL/plate of a stock solution 100 mg/mL.
[6] abbreviates: TA98, + S9, 50 µL/plate of a stock solution 100 mg/mL.
The mark [7] stands for this setting: TA98, + S9, 100 µL/plate of a stock solution 100 mg/mL.
Setting [8] is: TA98, − S9, 1 µL/plate of a stock solution 100 mg/mL.
Setting [9] is: TA98, − S9, 5 µL/plate of a stock solution 100 mg/mL.
[10] abbreviates: TA98, − S9, 10 µL/plate of a stock solution 100 mg/mL.
[11] abbreviates: TA98, − S9, 50 µL/plate of a stock solution 100 mg/mL.
Setting [12] is: TA98, − S9, 100 µL/plate of a stock solution 100 mg/mL.

Experimental for cyclooxygenase (COX): Cyclooxygenase (COX) activity assay was determined by using a fluorescence COX activity assay kit (Cayman, No. 700200) for detecting COX-1 and COX-2 activity in purified enzyme and tissue homogenate preparations. The assay was conducted by monitoring the appearance of fluorescent compound resofurin in accordance to the supplier recommendation. Aspirin (acetylsalicylic acid; 50 µM) served as positive control. The test compounds were dissolved in 1–2% DMSO (v/v) at 4 different concentrations (0.1, 1, 10 and 100 µM) and added to a purified COX preparation. A 1–2% DMSO solution was added to control plates. The plates were shaken for a few seconds and incubated for 5 min at 25 °C. The fluorescence was measured by using an excitation wavelength of 540 nm and an emission wavelength of 590 nm. Average fluorescent values were calculated for all the samples (n = 3/group) in order to determine the percentage of inhibition in respect to control (i.e. untreated) plates.

For the compound `Cc1ccc(O)c2c1CCC1C3CC[C@](O)(C(=O)CO)[C@@]3(C)CC(=O)[C@@]21O` (stereo partly drawn) [SCA, 1,9β,17,21‐tetrahydoxy‐4‐methyl‐19‐nor‐9β‐pregna‐1,3,5(10)‐trien‐11,20‐dione], the “effect on TNFα-stimulated translocation of p65 to the nucleus” value in series [1] is reported as “barely affected”. Also, the “genotoxic activity (Ames test)” value in series [2] is on record as “For none of the samples genotoxic activity emerged”. Besides, the “average number of revertant colonies” value in series [2] (setting [3]) was 43,7; in series [2] (setting [4]), 43,3; in series [2] (setting [5]) it was 41,3; in series [2] (setting [6]), 39,3; in series [2] (setting [7]), 41,3; in series [2] (setting [8]), 17,7. Besides, the “average number of revertant colonies” value in series [2] (setting [9]) is listed as 23,7; in series [2] (setting [10]) it was 23,3; in series [2] (setting [11]), 25,3; in series [2] (setting [12]) it was 20,3. Also, the “t/c (revertant colonies in treated plates/untreated plates)” value in series [2] (setting [3]) came to 1.2; in series [2] (setting [4]), 1.2; in series [2] (setting [5]), 1.1; in series [2] (setting [6]), 1.1; in series [2] (setting [7]), 1.1; in series [2] (setting [8]) it was 0.9. In addition, the “t/c (revertant colonies in treated plates/untreated plates)” value was 1.1 in series [2] (setting [9]), 1.1 in series [2] (setting [10]), 1.2 in series [2] (setting [11]) and 1.0 in series [2] (setting [12]). The “effect on COX activity” value on cyclooxygenase (COX) was “barely affected COX activity only at the lower concentration tested (0.1 µM)”.
As for `Cc1ccc(O)c2c1CCC1C3CC[C@](O)([C@H](O)CO)[C@@]3(C)CC(=O)[C@@]21O` (stereo partly drawn) [SCB, 1,9β,17,20β,21‐ pentahydoxy‐4‐methyl‐19‐nor‐9β‐pregna‐1,3,5(10)‐trien‐11‐one], the “effect on TNFα-stimulated translocation of p65 to the nucleus” value in series [1] is listed as “showed the ability in counteracting the proinflammatory stimulus”. The “genotoxic activity (Ames test)” value in series [2] is “For none of the samples genotoxic activity emerged”. The “average number of revertant colonies” value in series [2] (setting [3]) is 34; in series [2] (setting [4]) it was 35; in series [2] (setting [5]) it was 35; in series [2] (setting [6]), 31; in series [2] (setting [7]), 30; in series [2] (setting [8]) it was 24. Moreover, the “average number of revertant colonies” value in series [2] (setting [9]) is reported as 23; in series [2] (setting [10]), 22; in series [2] (setting [11]), 21; in series [2] (setting [12]), 19. Besides, the “t/c (revertant colonies in treated plates/untreated plates)” value in series [2] (setting [3]) is on record as 1.1; in series [2] (setting [4]), 1.1; in series [2] (setting [5]) it was 1.1; in series [2] (setting [6]), 1.0; in series [2] (setting [7]), 0.9; in series [2] (setting [8]), 1.0. Also, the “t/c (revertant colonies in treated plates/untreated plates)” value is recorded as 0.9 in series [2] (setting [9]), 0.9 in series [2] (setting [10]), 0.9 in series [2] (setting [11]) and 0.8 in series [2] (setting [12]). Moreover, at cyclooxygenase (COX), the “effect on COX activity” value is given as “inhibited COX activity at all concentrations tested in a dose-dependent trend”.

Source of the values: article PMC9685055, “Biological activity of new bioactive steroids deriving from biotransformation of cortisone” (Microbial Cell Factories, 2022).
